Reference: patent publication US20240376111A1, “COMPOSITIONS AND METHODS OF USING THE SAME FOR TREATMENT OF NEURODEGENERATIVE AND MITOCHONDRIAL DISEASE” (Mitokinin, Inc., priority 2021, published 2024)
Where two headings read alike, the source gives them in different places.

Legend:
[1] = tested on: SKOV3 cells; assay: In vitro mitosafety (glucose/galactose) assay; settings: highest mito-safe dose = highest concentration at which gal/glc>0.80 (IC20) in SKOV3 cells, divided by mt-Keima EC50
Protocol: (§1) Briefly, SKOV3 cells (ATCC HTB-77) were plated in DMEM (Corning 10-013-CV) medium containing 25 mM glucose or DMEM with no glucose (Gibco 11966-025) supplemented with 10 mM galactose at 9,000 cells/well in 96 well plates (Corning costar 3610). 24 hrs later, compounds, in DMSO, were added at various concentrations to a final 0.1% DMSO for all wells. […] After a 15 minute incubation cellular ATP levels were read out using a Promega GloMax® DiscoverMicroplate Reader.
(§2) The ratio of relative CellTiter-Glo values from cells grown in galactose to cells grown in glucose was determined (gal/glc ratio). The gal/glc ratio vs concentration is then graphed, and non-linear regression is used to find the highest concentration of MTK compound at which gal/glc>0.80 (the “highest mito-safe dose”, or IC20).

[2] = tested on: pS129 α-synuclein in mouse primary neurons treated with α-synuclein PFFs; assay: In vitro primary neuron α-synuclein pre-formed fibril (PFF) model; format: cell-based; settings: increasing doses, Western blot of insoluble fraction of lysates
Protocol: Primary hippocampal neurons were derived following standard protocols, and treated with sonicated PFFs according to the methods in Volpicelli-Daley et al (Methods Mol Biol 2019). Following addition of PFFs or PBS on DIV7, Mitokinin compound or vehicle control was added on DIV9 and DIV12. At DIV14, cultures were harvested for biochemical analysis using either whole cell lysis buffer or fractionation buffer containing NP-40.
For whole cell lysates, cultures were collected in WC lysis buffer [100 mM Bicine pH 8.0, 0.27M Sucrose (Sigma S-1888, FW: 342.3), 1 mM EDTA, 1 mM EGTA, 5 mM Na4P2O7 (ESB422, MW 446.06 g/mol), 100 mM Tris pH 7.5, 1% Triton X-100, 1× Halt™ Protease and Phosphatase Inhibitor Cocktail, with Benzonase (1:1000)]. Samples were incubated on ice for 30 min, sonicated, and then cleared by centrifugation at 18,000 g for 20 min at 4° C. Supernatant protein concentration was determined by BCA assay, and samples were analyzed by western blot using commercially available antibodies. Neuronal health markers included NfL, total caspase-3, cleaved caspase-3, pS65 Ub, LC3, TUJ1, and actin.
For fractionation, cells were collected in NP-40 lysis buffer (containing 10 mM Tris-HCl, pH 7.4, 150 mM NaCl, 5 mM EDTA, 0.5% Nonidet P-40, 1× Halt™ Protease and Phosphatase Inhibitor Cocktail, with Benzonase (1:1000). Following differential centrifugation at 22,000 g for 20 min at 4° C., the NP-40 insoluble pellet was resuspended in SDS-Brain lysis buffer (containing 10 mM Tris-HCl, pH 7.4, 150 mM NaCl, 5 mM EDTA, 0.5% Nonidet P-40, 1% SDS, 0.5% sodium deoxycholate, 1× Halt™ Protease and Phosphatase Inhibitor Cocktail, with Benzonase (1:1000) and sonicated. Protein concentrations were determined using the BCA assay and samples were analyzed for pS129 α-synuclein and total α-synuclein levels by western blot.

[3] = tested on: HeLa cells expressing mt-Keima and YFP-Parkin (HeLa MKYP); assay: Human mt-Keima mitophagy assay; format: cell-based; settings: HeLa MKYP cells, 16 hrs with compound, then 1 uM FCCP/oligomycin for 6 hours, FACS, read-out: EC50 in HeLa mt-Keima Mitophagy Assay
Protocol: Briefly, HeLa cells expressing mt-Keima and YFP-Parkin (HeLa MKYP) were plated at 10,000 cells/well in 96 well plates along with compounds at various concentrations. Following 16 hrs of incubation, cells were treated with 1 uM FCCP/oligomycin for 6 hours, then analyzed via FACS for the presence of mitochondria in lysosomes (as determined by an emissions spectrum shift from the pH-sensitive mt-Keima tag).

[4] = tested on: SKOV3 cells
Protocol: as §1, §2

EC50 ([3]; Homo sapiens) | EC50 [3] | Molecule | Mito-Safety Index (highest mito-safe dose/mt-Keima EC50) [1] | pS129 α-synuclein [2] | Mito-Safety Index (highest mito-safe dose/mt-Keima EC50) [4]
149 nM |  | CC(C)(F)CO[C@H]1COc2ccccc2[C@@H]1Nc1ncnc2[nH]c(C3CC3)cc12 [EP-0043180, 6-cyclopropyl-N-[(3R,4S)-3-(2-fluoro-2-methyl-propoxy)chroman-4-yl]-7H-pyrrolo[2,3-d]pyrimidin-4-amine] | 168.02 | significantly reduces | 
130 nM |  | COCCO[C@H]1COc2ccccc2[C@@H]1Nc1ncnc2[nH]c(C3CC3)cc12 [EP-0041944, 6-cyclopropyl-N-[(3R,4S)-3-(2-methoxyethoxy)chroman-4-yl]-7H-pyrrolo[2,3-d]pyrimidin-4-amine] | 45.94 | significantly reduces | 
 | 246 nM | N-[(3R,4,S)-3-(2-methoxyethoxy)chroman-4-yl]-6-(trifluoromethyl)-7H-pyrrolo[2,3-d]pyrimidin-4-amine [EP-0042319] |  | significantly reduces | 74.75
397 nM |  | COCCO[C@H]1COc2cc(F)ccc2[C@@H]1Nc1ncnc2[nH]c(C(F)(F)F)cc12 [EP-0042288, N-[(3R,4S)-7-fluoro-3-(2-methoxyethoxy)chroman-4-yl]-6-(trifluoromethyl)-7H-pyrrolo[2,3-d]pyrimidin-4-amine] | 40.57 |  | 
634 nM |  | COCC[C@H]1COc2ccccc2[C@@H]1Nc1ncnc2[nH]c(C(F)(F)F)cc12 [EP-0041252] | 39.13 |  | 
680 nM |  | Fc1ccc2c(c1)OC[C@H](OCC1CC1)[C@H]2Nc1ncnc2[nH]c(C(F)(F)F)cc12 [EP-0043819, N-((3R,4S)-3-(cyclopropylmethoxy)-7-fluorochroman-4-yl)-6-(trifluoromethyl)-7H-pyrrolo[2,3-d]pyrimidin-4-amine] | 36.7 |  | 
